How the values were obtained:
[1] = test system: orthotopic 4T1 breast tumors; test: Pimonidazole hypoxia staining (hypoxic area fraction); type: in vivo, mice; settings: 1 mg/kg; 4T1 (FIG. 2B)
Method: Because reducing collagen I levels and tissue stiffness decompresses vessels, it was hypothesized that hypoxia, which is an indicator of decreased blood flow to the tumor, would be reduced with bosentan treatment. […] For the hypoxia studies, Mice bearing orthotopic E0771 or 4T1 breast tumors were injected (intraperitoneal) with 60 mg/kg of pimonidazole HCl at 2 hr prior to tumor removal. Prior to tumors excision, animals were anesthetized via Avertin (200 mg/kg, intraperitoneal). Primary tumors were then excised, fixed in 4% PFA, embedded in OCT and processed accordingly for IHC. Hypoxic regions were detected using the mouse anti-pimonidazole RED 549 conjugate antibody (HP7-100Kit, 1:100). Hypoxic area fraction across different treatment groups was normalized to DAPI staining. For fluorescent immunohistochemistry, tumors were removed, washed twice in 1× PBS for 10 min and incubated with 4% PFA overnight at 4° C. The fixative was aspirated, and samples washed twice in 1× PBS for 10 min. Fixed tissues were embedded in optimal cutting temperature compound in cryomolds (Tissue-Tek) and frozen completely at −20° C. […] CD31 signal was detected with Alexa Fluor-488 anti-rabbit IgG (H+L) and CD3 signal with Alexa Fluor-647 anti-rat IgG (H+L) secondary antibodies. Tumor associated T cell and vessel content was determined by the CD31 and CD3 area fraction normalized to DAPI staining. […]

[2] = test system: 4T1 or E0771 tumors; test: Tumor growth under bosentan monotherapy (dose response studies); type: in vivo, mice; settings: bosentan monotherapy at any dose
Method: Mice bearing syngeneic, orthotopic triple negative breast cancer (TNBC) were treated with a range of sub-therapeutic doses of bosentan, from 0.2 mg/kg to 10 mg/kg of body weight. Orthotopic models for murine mammary tumors were generated by implantation of 5×10^4 4T1 or E0771 cancer cells in 40 μl of serum-free medium into the third mammary fat pad of 6-8-week-old BALB/c and C57BL/6 female mice, respectively. 4T1 (ATCC® CRL-2539TH) and E0771 (94A001, CH3 BioSystems) mouse breast adenocarcinoma cell lines were purchased form ATCC and CH3 BioSystems, respectively. The cells were maintained at 37° C./5% CO2 in Roswell Park Memorial Institute medium (RPMI-1640, LM-R1637, Biosera) supplemented with 10% fetal bovine serum (FBS, FB-1001H, biosera) and 1% antibiotics (A5955, Sigma). Bosentan (bosentan Hydrate (S3051, Selleckchem) was dissolved in ddH2O containing 2% DMSO (GK2245, Glentham Life Science), 30% PEG300 (S6704, Selleckchem) and 2% Tween 80 (S6702, Selleckchem)) 1 mg/kg, 5 mg/kg, 10 mg/kg or equal volume of diluent (control group) was administered by intraperitoneal injection (i.p.) once a day for 10 days, starting from once the tumor volumes reached an average size of 100 mm^3. Tumors were excised when they reached an average size of 500 mm^3. Tissue stiffness was then measured non-invasively and longitudinally using ultrasound elastography. […]

Question: With COc1ccccc1Oc1c(NS(=O)(=O)c2ccc(C(C)(C)C)cc2)nc(-c2ncccn2)nc1OCCO [bosentan, 4-tert-butyl-N-[6-(2-hydroxy-ethoxy)-5-(2-methoxy-phenoxy)-2-(pyrimidin-2-yl)pyrimidin-4-yl] benzenesulfonamide] as the compound, how does the “hypoxia (hypoxic area fraction)” value [1] read?
Answer: The value was “reduced hypoxia”.

Question: And the tumor growth [2]?
Answer: Its tumor growth is “did not affect”.
